Data published in ChEMBL document CHEMBL1151093, “6,7,8,9-tetrahydro-3-hydroxy-1H-1-benzazepine-2,5-diones via a diels-alder reaction:antagonists with a non-planar hydrophobic region for NMDA receptor glycine sites” (Bioorg Med Chem Lett, 1995).

Target: Glutamate receptor ionotropic, NMDA 1 (Rattus norvegicus, UniProt P35439)
Assay: Tested for the inhibition of [3H]5,7-dichlorokynurenic acid (DCKA) binding to NMDA receptor

With `O=c1cc(O)c2c([nH]c1=O)CCCC2` the IC50 was 3210 nM.

`CC1Cc2[nH]c(=O)c(=O)cc(O)c2CC1C` (stereo not given) was tested, and the IC50 was 228 nM.

For `O=c1cc(O)c2ccccc2[nH]c1=O`, the IC50 was 827 nM.

With `O=c1cc(O)c2c([nH]c1=O)CC(Cl)C(Cl)C2` (stereo not given) the IC50 was 131 nM.

`O=c1cc(O)c2ccc(Cl)cc2[nH]c1=O` was tested, and the IC50 was 13 nM.
